Here are results for 1 molecule from US12564576B2, “Therapeutic agent for vascular disorder” (NATIONAL UNIVERSITY CORPORATION KUMAMOTO UNIVERSITY, priority 2020, dated 2026).

Each structure is given as a SMILES string.

In this test the test system is synthesis and secretion of a type IV collagen protein in vascular endothelial cells derived from iPS cells. Briefly: Amount of type IV collagen protein released into the medium by iPS-derived vascular endothelial cells (Western blotting). It is filed as cell-based, human. As to conditions: 10 nmol/L digoxin, serum-free medium, 3 days culture; FIG. 3. Here is the method: As the cells, iPS cells derived from healthy adults and patients with scleroderma established at Kumamoto University were used (Zhongzhi Wang, et al., JDS 2016 November; 84(2): 186-196.). Scleroderma is known to cause Raynaud's syndrome, which is one of peripheral vascular disorders, as a symptom of scleroderma, and therefore was employed as a vascular disorder model cell.
Differentiation induction into vascular endothelial cells was performed by culturing iPS cells derived from healthy adults and patients with scleroderma under the conditions described in Table 1.
As the obtained cells, only cells positive for VE-cadherin (CD144) and PECAM-1 (CD31), which are vascular endothelial cell markers, were sorted using flow cytometry. From the morphology of the sorted cells and the expression of the marker genes, it was confirmed that the sorted cells were vascular endothelial cells. […]
In the above (1), using the cell supernatant cultured in the serum-free medium, the amount of a type IV collagen protein released into the medium was quantified by the following method.
First, proteins released into the medium were concentrated. […] After removal of ethanol, the precipitate was dried and dissolved in an RIPA buffer, and each sample was adjusted to have a protein concentration of 1 mg/ml using a protein quantification reagent (Bradford Protein Assay, manufactured by Bio-Rad Laboratories, Inc.). […]

As to `C[C@H]1O[C@@H](O[C@H]2[C@@H](O)C[C@H](O[C@H]3[C@@H](O)C[C@H](O[C@H]4CC[C@@]5(C)[C@H](CC[C@@H]6[C@@H]5C[C@@H](O)[C@]5(C)[C@@H](C7=CC(=O)OC7)CC[C@]65O)C4)O[C@@H]3C)O[C@@H]2C)C[C@H](O)[C@@H]1O` [digoxin], the “amount of a type IV collagen protein in the medium” value is given as “hardly reduced”.
